In ChEMBL document CHEMBL5352421, “Identification of novel piperazine-tethered phthalazines as selective CDK1 inhibitors endowed with in vitro anticancer activity toward the pancreatic cancer” (Eur J Med Chem, 2022):

Legend:
[1] = Antiproliferative activity against human MDA-PATC53 cells assessed as growth inhibition incubated for 24 hrs by MTT assay; format: functional, cell-based; conditions: MDA-PATC53, 24 h
[2] = Antiproliferative activity against human PL45 cells assessed as growth inhibition incubated for 24 hrs by MTT assay; format: functional, cell-based; conditions: PL45, 24 h
[3] = Antiproliferative activity against human MDA-PATC53 cells assessed as growth inhibition incubated at 10 uM for 24 hrs by MTT assay relative to control; format: functional; conditions: read-out: GI
[4] = Antiproliferative activity against human PL45 cells assessed as growth inhibition incubated at 10 uM for 24 hrs by MTT assay relative to control; format: functional; conditions: read-out: GI
SK-MEL-1 = experiment: Antiproliferative activity against human SK-MEL-1 cells assessed as growth inhibition incubated at 10 uM for 24 hrs by MTT assay relative to control; format: functional; conditions: read-out: GI
A-375 = experiment: Antiproliferative activity against human A-375 cells assessed as growth inhibition incubated at 10 uM for 24 hrs by MTT assay relative to control; format: functional; conditions: read-out: GI
G-361 = experiment: Antiproliferative activity against human G-361 cells assessed as growth inhibition incubated at 10 uM for 24 hrs by MTT assay relative to control; format: functional; conditions: read-out: GI
MOLT-4 = experiment: Antiproliferative activity against human MOLT-4 cells assessed as growth inhibition incubated at 10 uM for 24 hrs by MTT assay relative to control; format: functional; conditions: read-out: GI
KG-1 = experiment: Antiproliferative activity against human KG-1 cells assessed as growth inhibition incubated at 10 uM for 24 hrs by MTT assay relative to control; format: functional; conditions: read-out: GI
T84 = experiment: Antiproliferative activity against human T84 cells assessed as growth inhibition incubated at 10 uM for 24 hrs by MTT assay relative to control; format: functional; conditions: read-out: GI
HT-29 = experiment: Antiproliferative activity against human HT-29 cells assessed as growth inhibition incubated at 10 uM for 24 hrs by MTT assay relative to control; format: functional; conditions: read-out: GI
MCF7 = experiment: Antiproliferative activity against human MCF7 cells assessed as growth inhibition incubated at 10 uM for 24 hrs by MTT assay relative to control; format: functional; conditions: read-out: GI
BT-549 = experiment: Antiproliferative activity against human BT-549 cells assessed as growth inhibition incubated at 10 uM for 24 hrs by MTT assay relative to control; format: functional; conditions: read-out: GI
[5] = target: Cyclin-dependent kinase 1 (Homo sapiens, UniProt P06493); experiment: Inhibition of CDK1 (unknown origin) by FRET assay
Cyclin-dependent kinase 1, sequence (P06493 whole entry): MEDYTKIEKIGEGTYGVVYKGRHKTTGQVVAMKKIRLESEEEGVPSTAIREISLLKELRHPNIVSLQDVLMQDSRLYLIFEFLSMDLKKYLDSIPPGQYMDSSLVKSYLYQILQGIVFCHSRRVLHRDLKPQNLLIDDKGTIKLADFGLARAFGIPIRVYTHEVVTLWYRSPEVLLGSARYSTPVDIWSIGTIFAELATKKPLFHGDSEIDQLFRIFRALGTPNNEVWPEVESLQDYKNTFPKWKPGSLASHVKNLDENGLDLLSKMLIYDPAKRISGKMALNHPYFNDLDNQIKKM

[6] = target: Cyclin-dependent kinase 2 (Homo sapiens, UniProt P24941); experiment: Inhibition of CDK2 (unknown origin) by FRET assay
[7] = target: Cyclin-dependent kinase 5 (Homo sapiens, UniProt Q00535); experiment: Inhibition of CDK5 (unknown origin) by FRET assay
Cyclin-dependent kinase 5, sequence (Q00535 whole entry): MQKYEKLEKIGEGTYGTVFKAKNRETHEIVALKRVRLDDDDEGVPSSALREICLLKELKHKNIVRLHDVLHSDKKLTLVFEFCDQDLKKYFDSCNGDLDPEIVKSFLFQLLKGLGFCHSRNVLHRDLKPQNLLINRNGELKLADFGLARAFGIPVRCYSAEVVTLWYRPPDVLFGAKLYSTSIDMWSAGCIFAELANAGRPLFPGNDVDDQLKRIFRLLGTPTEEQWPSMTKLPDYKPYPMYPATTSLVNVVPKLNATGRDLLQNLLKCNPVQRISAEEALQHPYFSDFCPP

[8] = Selectivity index, ratio of IC50 for CDK2 (unknown origin) to CDK1 (unknown origin)
[9] = Selectivity index, ratio of IC50 for CDK5 (unknown origin) to CDK1 (unknown origin)
[10] = target: T1, Tyrosine-protein kinase receptor UFO (Homo sapiens, UniProt P30530); experiment: Inhibition of AXL (unknown origin) by FRET assay
T1 sequence (P30530 whole entry): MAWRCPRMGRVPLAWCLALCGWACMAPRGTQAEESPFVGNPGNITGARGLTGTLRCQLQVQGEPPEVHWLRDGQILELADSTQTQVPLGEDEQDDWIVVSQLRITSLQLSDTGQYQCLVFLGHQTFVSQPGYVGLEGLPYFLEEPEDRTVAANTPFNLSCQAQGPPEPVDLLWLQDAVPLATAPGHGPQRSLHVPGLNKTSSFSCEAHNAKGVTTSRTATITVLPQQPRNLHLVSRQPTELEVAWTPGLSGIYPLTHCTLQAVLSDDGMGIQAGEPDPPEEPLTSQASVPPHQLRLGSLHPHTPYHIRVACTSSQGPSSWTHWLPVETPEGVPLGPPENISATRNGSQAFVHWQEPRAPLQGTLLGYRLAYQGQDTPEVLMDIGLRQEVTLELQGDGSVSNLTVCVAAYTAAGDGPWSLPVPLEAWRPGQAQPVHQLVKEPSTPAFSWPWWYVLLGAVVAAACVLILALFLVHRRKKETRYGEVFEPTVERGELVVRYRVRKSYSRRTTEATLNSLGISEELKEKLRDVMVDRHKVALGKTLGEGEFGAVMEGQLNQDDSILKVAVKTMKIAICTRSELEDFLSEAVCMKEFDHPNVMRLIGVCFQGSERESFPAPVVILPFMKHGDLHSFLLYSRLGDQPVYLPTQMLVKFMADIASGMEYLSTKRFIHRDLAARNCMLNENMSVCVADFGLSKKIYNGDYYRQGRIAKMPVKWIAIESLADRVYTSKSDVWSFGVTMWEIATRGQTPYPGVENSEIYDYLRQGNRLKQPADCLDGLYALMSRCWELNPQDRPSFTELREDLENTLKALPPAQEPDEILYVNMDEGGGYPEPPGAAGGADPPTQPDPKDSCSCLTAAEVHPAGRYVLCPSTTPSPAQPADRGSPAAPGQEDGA

[11] = target: Protein-tyrosine kinase 2-beta (Homo sapiens, UniProt Q14289); experiment: Inhibition of PTK2B (unknown origin) by FRET assay
Protein-tyrosine kinase 2-beta, sequence (Q14289 whole entry): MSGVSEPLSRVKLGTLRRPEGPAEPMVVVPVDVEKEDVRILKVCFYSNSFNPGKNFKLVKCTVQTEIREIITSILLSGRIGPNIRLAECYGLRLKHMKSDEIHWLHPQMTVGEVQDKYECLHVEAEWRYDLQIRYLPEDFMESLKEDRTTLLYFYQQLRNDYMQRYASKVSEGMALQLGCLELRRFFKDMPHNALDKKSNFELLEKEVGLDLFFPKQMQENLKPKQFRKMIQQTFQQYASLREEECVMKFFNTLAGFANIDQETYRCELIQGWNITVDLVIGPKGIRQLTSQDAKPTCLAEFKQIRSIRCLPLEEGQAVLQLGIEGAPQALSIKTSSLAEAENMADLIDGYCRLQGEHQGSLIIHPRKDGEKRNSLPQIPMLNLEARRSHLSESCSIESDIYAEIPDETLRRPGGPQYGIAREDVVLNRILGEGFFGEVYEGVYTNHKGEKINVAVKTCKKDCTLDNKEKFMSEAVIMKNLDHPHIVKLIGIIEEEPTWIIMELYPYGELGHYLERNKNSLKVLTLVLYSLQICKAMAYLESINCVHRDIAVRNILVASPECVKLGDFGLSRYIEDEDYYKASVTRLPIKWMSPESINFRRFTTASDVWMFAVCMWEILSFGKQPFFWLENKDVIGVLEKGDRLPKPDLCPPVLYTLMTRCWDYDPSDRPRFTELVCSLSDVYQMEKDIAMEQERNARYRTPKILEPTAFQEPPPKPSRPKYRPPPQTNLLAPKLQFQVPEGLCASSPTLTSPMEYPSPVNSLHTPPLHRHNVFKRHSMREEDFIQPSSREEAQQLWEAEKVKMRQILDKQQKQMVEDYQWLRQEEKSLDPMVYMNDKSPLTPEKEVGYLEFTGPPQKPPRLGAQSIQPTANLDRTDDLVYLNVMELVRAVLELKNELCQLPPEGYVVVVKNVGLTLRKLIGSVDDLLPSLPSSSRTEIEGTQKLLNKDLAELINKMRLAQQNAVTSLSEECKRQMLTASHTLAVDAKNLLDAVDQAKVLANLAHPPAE

[12] = target: Fibroblast growth factor receptor (Homo sapiens, UniProt P22607+P11362+P22455+P21802); experiment: Inhibition of FGFR (unknown origin) by FRET assay; format: protein assay
[13] = target: Tyrosine-protein kinase JAK1 (Homo sapiens, UniProt P23458); experiment: Inhibition of JAK1 (unknown origin) by FRET assay
Tyrosine-protein kinase JAK1, sequence (P23458 whole entry): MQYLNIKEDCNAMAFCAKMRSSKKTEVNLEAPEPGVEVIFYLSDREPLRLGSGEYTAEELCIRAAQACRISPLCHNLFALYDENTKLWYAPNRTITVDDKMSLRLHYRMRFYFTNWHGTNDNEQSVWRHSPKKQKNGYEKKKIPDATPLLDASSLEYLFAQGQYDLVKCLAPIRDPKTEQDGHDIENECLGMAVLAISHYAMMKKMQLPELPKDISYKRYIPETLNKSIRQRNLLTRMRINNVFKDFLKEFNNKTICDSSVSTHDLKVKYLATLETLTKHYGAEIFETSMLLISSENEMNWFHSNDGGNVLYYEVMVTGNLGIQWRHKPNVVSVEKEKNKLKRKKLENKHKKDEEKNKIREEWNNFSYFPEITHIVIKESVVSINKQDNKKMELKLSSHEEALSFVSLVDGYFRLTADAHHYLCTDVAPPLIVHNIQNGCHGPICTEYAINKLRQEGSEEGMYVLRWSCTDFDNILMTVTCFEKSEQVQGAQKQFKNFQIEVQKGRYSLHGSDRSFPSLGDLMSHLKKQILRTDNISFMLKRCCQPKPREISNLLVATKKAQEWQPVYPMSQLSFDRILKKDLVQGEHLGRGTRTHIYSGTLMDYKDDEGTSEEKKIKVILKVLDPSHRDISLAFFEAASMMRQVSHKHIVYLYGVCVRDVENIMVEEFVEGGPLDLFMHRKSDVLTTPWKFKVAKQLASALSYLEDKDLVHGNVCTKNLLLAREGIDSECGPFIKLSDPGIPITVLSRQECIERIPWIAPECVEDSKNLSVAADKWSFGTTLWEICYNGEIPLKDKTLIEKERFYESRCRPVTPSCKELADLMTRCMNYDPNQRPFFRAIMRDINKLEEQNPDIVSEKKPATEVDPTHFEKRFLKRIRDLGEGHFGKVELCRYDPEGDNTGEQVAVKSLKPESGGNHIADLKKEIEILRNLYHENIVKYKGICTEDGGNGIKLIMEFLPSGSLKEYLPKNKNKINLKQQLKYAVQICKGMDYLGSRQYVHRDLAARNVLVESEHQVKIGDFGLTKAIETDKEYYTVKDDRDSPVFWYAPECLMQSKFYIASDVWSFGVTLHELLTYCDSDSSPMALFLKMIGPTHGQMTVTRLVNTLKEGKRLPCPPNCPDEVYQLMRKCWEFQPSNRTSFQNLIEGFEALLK

[14] = target: Insulin-like growth factor 1 receptor (Homo sapiens, UniProt P08069); experiment: Inhibition of IGF1R (unknown origin) by FRET assay
Insulin-like growth factor 1 receptor, sequence (P08069 31-736 limits assumed): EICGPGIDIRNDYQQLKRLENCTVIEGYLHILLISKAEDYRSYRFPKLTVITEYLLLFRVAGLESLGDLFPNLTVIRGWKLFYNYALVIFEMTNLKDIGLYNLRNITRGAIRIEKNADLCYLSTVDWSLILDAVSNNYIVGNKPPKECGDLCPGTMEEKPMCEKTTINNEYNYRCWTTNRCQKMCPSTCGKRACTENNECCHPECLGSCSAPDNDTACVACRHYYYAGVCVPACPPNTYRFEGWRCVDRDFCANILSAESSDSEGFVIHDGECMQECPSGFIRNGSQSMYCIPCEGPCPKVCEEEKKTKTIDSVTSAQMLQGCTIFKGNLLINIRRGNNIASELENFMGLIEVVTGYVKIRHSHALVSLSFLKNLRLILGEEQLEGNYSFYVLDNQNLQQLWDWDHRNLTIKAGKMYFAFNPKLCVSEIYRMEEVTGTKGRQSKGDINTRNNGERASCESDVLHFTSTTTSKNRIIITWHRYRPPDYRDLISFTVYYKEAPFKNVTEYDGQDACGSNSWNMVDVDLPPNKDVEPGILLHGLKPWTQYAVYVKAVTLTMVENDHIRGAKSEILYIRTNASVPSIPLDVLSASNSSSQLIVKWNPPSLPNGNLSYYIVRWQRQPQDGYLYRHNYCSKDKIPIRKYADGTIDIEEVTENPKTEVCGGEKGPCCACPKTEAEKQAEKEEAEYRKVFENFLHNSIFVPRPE
Insulin-like growth factor 1 receptor, sequence (P08069 741-1367 limits assumed): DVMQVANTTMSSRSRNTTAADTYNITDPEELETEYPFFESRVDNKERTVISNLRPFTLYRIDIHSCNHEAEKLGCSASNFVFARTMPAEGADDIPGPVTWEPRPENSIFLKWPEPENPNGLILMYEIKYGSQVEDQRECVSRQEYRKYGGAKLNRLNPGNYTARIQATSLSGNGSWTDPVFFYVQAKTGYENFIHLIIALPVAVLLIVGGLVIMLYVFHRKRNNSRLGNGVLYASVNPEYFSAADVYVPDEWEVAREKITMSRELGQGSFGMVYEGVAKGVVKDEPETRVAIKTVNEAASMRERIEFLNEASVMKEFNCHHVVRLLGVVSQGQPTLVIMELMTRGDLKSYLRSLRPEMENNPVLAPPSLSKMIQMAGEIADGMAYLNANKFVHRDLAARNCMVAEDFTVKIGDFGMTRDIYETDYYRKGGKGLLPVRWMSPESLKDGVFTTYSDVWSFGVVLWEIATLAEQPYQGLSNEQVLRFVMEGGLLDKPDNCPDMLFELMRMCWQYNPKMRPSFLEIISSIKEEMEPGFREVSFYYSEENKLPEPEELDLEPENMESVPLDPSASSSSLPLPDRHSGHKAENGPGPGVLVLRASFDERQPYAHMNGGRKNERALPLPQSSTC

[15] = target: Serine/threonine-protein kinase B-raf (Homo sapiens, UniProt P15056); experiment: Inhibition of BRAF (unknown origin) by FRET assay
Serine/threonine-protein kinase B-raf, sequence (P15056 whole entry): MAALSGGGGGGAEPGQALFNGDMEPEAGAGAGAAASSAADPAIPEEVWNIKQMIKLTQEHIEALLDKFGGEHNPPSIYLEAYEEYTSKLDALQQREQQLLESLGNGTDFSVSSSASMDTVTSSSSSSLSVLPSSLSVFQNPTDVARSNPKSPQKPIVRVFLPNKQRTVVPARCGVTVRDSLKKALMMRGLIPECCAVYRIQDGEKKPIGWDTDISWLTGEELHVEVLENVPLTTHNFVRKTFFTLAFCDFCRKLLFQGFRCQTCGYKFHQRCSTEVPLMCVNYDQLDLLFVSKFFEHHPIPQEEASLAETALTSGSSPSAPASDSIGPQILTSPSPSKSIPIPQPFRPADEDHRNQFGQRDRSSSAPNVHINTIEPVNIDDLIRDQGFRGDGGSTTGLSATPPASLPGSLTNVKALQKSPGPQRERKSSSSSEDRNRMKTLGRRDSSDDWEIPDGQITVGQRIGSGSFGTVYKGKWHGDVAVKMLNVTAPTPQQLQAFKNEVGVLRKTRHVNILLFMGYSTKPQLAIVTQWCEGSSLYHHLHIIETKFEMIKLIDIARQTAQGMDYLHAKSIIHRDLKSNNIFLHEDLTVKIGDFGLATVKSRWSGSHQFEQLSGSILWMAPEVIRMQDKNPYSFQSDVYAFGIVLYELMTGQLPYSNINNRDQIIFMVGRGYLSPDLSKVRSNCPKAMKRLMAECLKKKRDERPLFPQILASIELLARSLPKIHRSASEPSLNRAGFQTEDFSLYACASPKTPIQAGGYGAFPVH

Compound | IC50 [5] [nM] | IC50 [6] [nM] | IC50 [7] [nM] | Ratio IC50 [8] | Ratio IC50 [9] | IC50 [10] [µM] | IC50 [11] [µM] | IC50 [1] [µM] | IC50 [2] [µM] | inhibition of growth at 10 µM [3] [%] | inhibition of growth at 10 µM [4] [%] | inhibition of growth at 10 µM (SK-MEL-1) [%] | inhibition of growth at 10 µM (A-375) [%] | inhibition of growth at 10 µM (G-361) [%] | inhibition of growth at 10 µM (MOLT-4) [%] | inhibition of growth at 10 µM (KG-1) [%] | inhibition of growth at 10 µM (T84) [%] | inhibition of growth at 10 µM (HT-29) [%] | inhibition of growth at 10 µM (MCF7) [%] | inhibition of growth at 10 µM (BT-549) [%] | also measured
CCc1cnn2c(NCc3ccc[n+]([O-])c3)cc(N3CCCC[C@H]3CCO)nc12 [DINACICLIB] | – | – | – | – | – | – | – | 0.024 | 0.015 | – | – | – | – | – | – | – | – | – | – | – | –
COc1ccc(NC(=S)N2CCN(c3nnc(Cc4ccccc4)c4ccccc34)CC2)cc1 | 126 | 308 | 498 | 2.43 | 3.94 | 4.42 | 3.64 | 10.2 | 12.5 | 49 | 49.6 | 6.64 | 11.2 | 24.6 | 14.2 | 1.36 | 9.67 | 21.9 | 10.1 | 8.65 | IC50 [12]: 5.517 µM; IC50 [13]: 2.54 µM; IC50 [14]: 8.63 µM; IC50 [15]: 4.49 µM
O=C(Nc1ccc(Cl)cc1)N1CCN(c2nnc(Cc3ccccc3)c3ccccc23)CC1 | 58.4 | 103 | 826 | 1.76 | 14.2 | 8.75 | 1.33 | 5.3 | 2.21 | 67.4 | 81.8 | 50.1 | 66.3 | 47 | 33 | 57.9 | 29.4 | 81.2 | 64.8 | 23 | IC50 [12]: 6.346 µM; IC50 [13]: 4.55 µM; IC50 [14]: 3.15 µM; IC50 [15]: 3.65 µM
S=C(Nc1ccc(Cl)cc1)N1CCN(c2nnc(Cc3ccccc3)c3ccccc23)CC1 | 109 | 341 | 358 | 3.13 | 3.29 | 3.63 | 5.21 | 11.9 | 6.75 | 49.3 | 64.1 | 5.4 | 8.39 | 1.08 | 19.6 | 8.92 | 12.2 | 10.8 | 7.64 | 18.6 | IC50 [12]: 5.278 µM; IC50 [13]: 6.61 µM; IC50 [14]: 6.3 µM; IC50 [15]: 4.99 µM

Continued by falling IC50 [5], values first:

IC50 [5] [nM] | IC50 [6] [nM] | IC50 [7] [nM] | Ratio IC50 [8] | Ratio IC50 [9] | IC50 [10] [µM] | IC50 [11] [µM] | Compound | IC50 [1] [µM] | IC50 [2] [µM] | inhibition of growth at 10 µM [3] [%] | inhibition of growth at 10 µM [4] [%] | inhibition of growth at 10 µM (SK-MEL-1) [%] | inhibition of growth at 10 µM (A-375) [%] | inhibition of growth at 10 µM (G-361) [%] | inhibition of growth at 10 µM (MOLT-4) [%] | inhibition of growth at 10 µM (KG-1) [%] | inhibition of growth at 10 µM (T84) [%] | inhibition of growth at 10 µM (HT-29) [%] | inhibition of growth at 10 µM (MCF7) [%] | inhibition of growth at 10 µM (BT-549) [%] | also measured
114 | 138 | 835 | 1.21 | 7.32 | 3.51 | 3.5 | O=C(c1ccc(Cl)cc1)N1CCN(c2nnc(Cc3ccccc3)c3ccccc23)CC1 | 13 | 8.45 | 45.1 | 57.4 | 10.4 | 15.3 | 24.7 | 12.1 | 8.36 | 16.7 | 4.9 | 18.6 | 0.65 | IC50 [12]: 2.628 µM; IC50 [13]: 3.39 µM; IC50 [14]: 8.75 µM; IC50 [15]: 1.48 µM
83.1 | 301 | 606 | 3.62 | 7.29 | 1.52 | 6.38 | COc1ccc(C(=O)N2CCN(c3nnc(Cc4ccccc4)c4ccccc34)CC2)cc1 | 14.3 | 4.85 | 42 | 66.7 | 11.8 | 5.3 | 3.45 | 1.02 | 0.91 | 2 | 1.58 | 4.09 | 5.26 | IC50 [12]: 8.605 µM; IC50 [13]: 5.55 µM; IC50 [14]: 4.08 µM; IC50 [15]: 4.67 µM
66.5 | 108 | 280 | 1.63 | 4.22 | 2.33 | 7.25 | COc1ccc(NC(=O)N2CCN(c3nnc(Cc4ccccc4)c4ccccc34)CC2)cc1 | 1.7 | 4.6 | 85.2 | 71.5 | 54.3 | 34.9 | 25.7 | 52.9 | 71.3 | 48 | 54.1 | 34 | 43.9 | IC50 [12]: 4.567 µM; IC50 [13]: 8.5 µM; IC50 [14]: 4.26 µM; IC50 [15]: 2.43 µM
62.5 | 115 | 276 | 1.84 | 4.41 | 4.88 | 3.57 | O=C(c1ccccc1)N1CCN(c2nnc(Cc3ccccc3)c3ccccc23)CC1 | 3.42 | 5.03 | 75.8 | 68.5 | 54.9 | 32.1 | 47.9 | 51.2 | 73.6 | 26.3 | 40.4 | 38.4 | 24.3 | IC50 [12]: 5.254 µM; IC50 [13]: 7.18 µM; IC50 [14]: 3.66 µM; IC50 [15]: 7.82 µM
49.5 | 534 | 716 | 10.8 | 14.5 | 2.17 | 2.37 | COc1ccc(Cc2nnc(N3CCN(C(=S)Nc4ccc(Cl)cc4)CC3)c3ccccc23)cc1 | 1.62 | 1.89 | 85.8 | 86.4 | 64.7 | 85.6 | 72.3 | 78.4 | 63.9 | 81.4 | 80.1 | 71.9 | 75.4 | IC50 [12]: 4.354 µM; IC50 [13]: 4.15 µM; IC50 [14]: 7.44 µM; IC50 [15]: 2.47 µM
